Laboratory results from ChEMBL document CHEMBL1201862, “PubChem BioAssay data set” (2004).
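Each compound was tested at five concentrations against cells in 96-well plates for 48 hours. GI50 is the concentration that inhibits growth by half.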 Calls of active or inactive are those of the source. Cut-off read from the data, not from the text of the source: active = GI50 up to about 1.1 µM and inactive = higher.

Assays:
Assay in all cases: inhibition of tumour cell growth, NCI panel, 48 h
K562 = tested on: K562
SW-620 = tested on: SW-620
A549 = tested on: A549
SF-268 = tested on: SF-268
SF-295 = tested on: SF-295
KM12 = tested on: KM12
TK-10 = tested on: TK-10
RXF 393 = tested on: RXF 393
OVCAR-4 = tested on: OVCAR-4
Malme-3M = tested on: Malme-3M
MOLT-4 = tested on: MOLT-4
HT-29 = tested on: HT-29
BT-549 = tested on: BT-549
IGROV-1 = tested on: IGROV-1
RPMI-8226 = tested on: RPMI-8226
SK-OV-3 = tested on: SK-OV-3
LOX IMVI = tested on: LOX IMVI
U-251 = tested on: U-251
NCI-H226 = tested on: NCI-H226

Measured: GI50

COc1ccc(-n2c(N)c(C#N)c(C#N)c2-c2cccc([N+](=O)[O-])c2)cc1
inactive: K562 > 100 µM | SW-620 > 100 µM | A549 1.53 µM | SF-268 51.9 µM | SF-295 42.5 µM | KM12 62.5 µM | TK-10 > 100 µM | RXF 393 2.55 µM | OVCAR-4 26.5 µM | Malme-3M > 100 µM | MOLT-4 2.46 µM | HT-29 25.3 µM | BT-549 > 100 µM | IGROV-1 23.8 µM | RPMI-8226 5.37 µM | SK-OV-3 43.7 µM | LOX IMVI 48.3 µM | U-251 38.8 µM | NCI-H226 > 100 µM

C1CN2CCNCCN(CCN1)CC2
inactive: K562 > 100 µM | SW-620 > 100 µM | A549 > 100 µM | SF-268 > 100 µM | SF-295 > 100 µM | KM12 > 100 µM | TK-10 > 100 µM | RXF 393 > 100 µM | OVCAR-4 > 100 µM | Malme-3M > 100 µM | MOLT-4 > 100 µM | HT-29 > 100 µM | BT-549 > 100 µM | IGROV-1 > 100 µM | RPMI-8226 > 100 µM | SK-OV-3 > 100 µM | LOX IMVI > 100 µM | U-251 > 100 µM | NCI-H226 > 100 µM

Cc1cn(C2CC(N=[N+]=[N-])C(CO)O2)c(=O)n(CCCCBr)c1=O (stereo unspecified)
inactive: K562 > 100 µM | SW-620 > 100 µM | A549 > 100 µM | SF-268 > 100 µM | SF-295 > 100 µM | KM12 > 100 µM | TK-10 > 100 µM | RXF 393 > 100 µM | OVCAR-4 > 100 µM | Malme-3M > 100 µM | MOLT-4 95.1 µM | HT-29 > 100 µM | BT-549 > 100 µM | IGROV-1 > 100 µM | RPMI-8226 50.7 µM | SK-OV-3 > 100 µM | LOX IMVI 89.7 µM | U-251 18.8 µM | NCI-H226 > 100 µM

CC(C)=CCN1c2ccccc2NC(=O)CC1C (stereo unspecified)
inactive: K562 > 100 µM | SW-620 > 100 µM | A549 > 100 µM | SF-268 > 100 µM | SF-295 > 100 µM | KM12 > 100 µM | TK-10 55.8 µM | RXF 393 > 100 µM | OVCAR-4 28.4 µM | Malme-3M > 100 µM | MOLT-4 > 100 µM | HT-29 > 100 µM | BT-549 22.7 µM | IGROV-1 > 100 µM | RPMI-8226 > 100 µM | SK-OV-3 > 100 µM | LOX IMVI > 100 µM | U-251 > 100 µM | NCI-H226 > 100 µM

O=C1c2ccccc2C(=O)N1C1(C(=O)NC2(C(=O)O)CCCC2)CCCC1
inactive: K562 > 100 µM | SW-620 > 100 µM | A549 > 100 µM | SF-268 > 100 µM | SF-295 > 100 µM | KM12 > 100 µM | TK-10 > 100 µM | RXF 393 > 100 µM | OVCAR-4 > 100 µM | Malme-3M > 100 µM | MOLT-4 > 100 µM | HT-29 > 100 µM | BT-549 > 100 µM | IGROV-1 > 100 µM | RPMI-8226 > 100 µM | SK-OV-3 > 100 µM | LOX IMVI > 100 µM | U-251 > 100 µM | NCI-H226 > 100 µM

CC1OC(OC2C(O)C(O)C(O)C(O)C2O)C(N)CC1NC(=N)C(=O)O (stereo unspecified)
inactive: K562 > 100 µM | SW-620 > 100 µM | A549 > 100 µM | SF-268 > 100 µM | SF-295 > 100 µM | KM12 > 100 µM | TK-10 > 100 µM | RXF 393 > 100 µM | OVCAR-4 > 100 µM | Malme-3M > 100 µM | MOLT-4 > 100 µM | HT-29 > 100 µM | BT-549 > 100 µM | IGROV-1 > 100 µM | RPMI-8226 > 100 µM | SK-OV-3 > 100 µM | LOX IMVI > 100 µM | U-251 > 100 µM | NCI-H226 > 100 µM

Oc1ccc(Cc2cc(Cl)cc(Cl)c2O)cc1Cl
inactive: K562 15.5 µM | SW-620 16.6 µM | A549 19.1 µM | SF-268 16.6 µM | SF-295 19 µM | KM12 20 µM | TK-10 16.3 µM | RXF 393 13.4 µM | OVCAR-4 23.3 µM | Malme-3M 16.8 µM | MOLT-4 20 µM | HT-29 20.1 µM | BT-549 18.8 µM | IGROV-1 17.9 µM | RPMI-8226 22.3 µM | SK-OV-3 27.1 µM | LOX IMVI 16.6 µM | U-251 19.2 µM | NCI-H226 21.1 µM

CCC1(C)NC(c2cnccn2)=NN1c1ccc(Cl)cc1 (stereo unspecified)
inactive: K562 39.3 µM | SW-620 45.3 µM | A549 > 100 µM | SF-268 > 100 µM | SF-295 > 100 µM | KM12 > 100 µM | TK-10 70.3 µM | RXF 393 41.7 µM | OVCAR-4 63.2 µM | Malme-3M 41.9 µM | MOLT-4 32.7 µM | HT-29 88.1 µM | BT-549 > 100 µM | IGROV-1 > 100 µM | RPMI-8226 30 µM | SK-OV-3 > 100 µM | LOX IMVI 35.9 µM | U-251 52.8 µM | NCI-H226 > 100 µM

COc1cc(/C=C/C(=O)CC(=O)/C=C/c2ccc(OC(=O)CCCCC3CCSS3)c(OC)c2)ccc1OC(=O)CCCCC1CCSS1 (stereo unspecified)
inactive: K562 > 100 µM | SW-620 > 100 µM | A549 > 100 µM | SF-268 > 100 µM | SF-295 > 100 µM | KM12 > 100 µM | TK-10 > 100 µM | RXF 393 > 100 µM | OVCAR-4 > 100 µM | Malme-3M > 100 µM | MOLT-4 > 100 µM | HT-29 > 100 µM | BT-549 > 100 µM | IGROV-1 > 100 µM | RPMI-8226 > 100 µM | SK-OV-3 > 100 µM | LOX IMVI > 100 µM | U-251 > 100 µM | NCI-H226 > 100 µM

C[n+]1[n-]o/c(=N\N=O)c1-c1cc(-c2/c(=N/N=O)o[n-][n+]2C)cc(-c2/c(=N\N=O)o[n-][n+]2C)c1
inactive: K562 > 100 µM | SW-620 > 100 µM | A549 > 100 µM | SF-268 > 100 µM | SF-295 > 100 µM | KM12 > 100 µM | TK-10 > 100 µM | RXF 393 > 100 µM | OVCAR-4 > 100 µM | Malme-3M > 100 µM | MOLT-4 > 100 µM | HT-29 > 100 µM | BT-549 > 100 µM | IGROV-1 > 100 µM | RPMI-8226 > 100 µM | SK-OV-3 > 100 µM | LOX IMVI > 100 µM | U-251 > 100 µM | NCI-H226 > 100 µM

COc1cc(/C=C/C(=O)OC[C@H](Br)[C@H](OC(C)=O)c2ccc3c(c2)OCO3)cc(OC)c1OC
inactive: K562 > 100 µM | SW-620 > 100 µM | A549 92.7 µM | SF-268 > 100 µM | SF-295 > 100 µM | KM12 > 100 µM | TK-10 > 100 µM | RXF 393 > 100 µM | OVCAR-4 > 100 µM | Malme-3M > 100 µM | MOLT-4 7.69 µM | HT-29 > 100 µM | BT-549 > 100 µM | IGROV-1 > 100 µM | RPMI-8226 61.1 µM | SK-OV-3 > 100 µM | LOX IMVI > 100 µM | U-251 > 100 µM | NCI-H226 > 100 µM

O=C(O)c1ccccc1-c1ccccc1C(=O)Nc1ccc2c(c1)nc(O)c1ccccc12
inactive: K562 39.6 µM | SW-620 > 100 µM | A549 > 100 µM | SF-268 > 100 µM | SF-295 > 100 µM | KM12 > 100 µM | TK-10 > 100 µM | RXF 393 > 100 µM | OVCAR-4 > 100 µM | Malme-3M > 100 µM | MOLT-4 25.8 µM | HT-29 > 100 µM | BT-549 52.4 µM | IGROV-1 94.4 µM | RPMI-8226 > 100 µM | SK-OV-3 > 100 µM | LOX IMVI 48.9 µM | U-251 51.9 µM | NCI-H226 > 100 µM

Cn1c(=O)c2c(nc(N)n2C2OC(CO)C(O)C2O)n(C)c1=O (stereo unspecified)
inactive: K562 > 100 µM | SW-620 > 100 µM | A549 > 100 µM | SF-268 > 100 µM | SF-295 > 100 µM | KM12 > 100 µM | TK-10 > 100 µM | RXF 393 > 100 µM | OVCAR-4 > 100 µM | Malme-3M > 100 µM | MOLT-4 > 100 µM | HT-29 > 100 µM | BT-549 > 100 µM | IGROV-1 > 100 µM | RPMI-8226 > 100 µM | SK-OV-3 > 100 µM | LOX IMVI > 100 µM | U-251 > 100 µM | NCI-H226 > 100 µM

N#Cc1nc(C2CC2)oc1N
inactive: K562 > 100 µM | SW-620 > 100 µM | A549 > 100 µM | SF-268 > 100 µM | SF-295 > 100 µM | KM12 25.7 µM | TK-10 > 100 µM | RXF 393 > 100 µM | OVCAR-4 > 100 µM | Malme-3M 94.4 µM | MOLT-4 > 100 µM | HT-29 > 100 µM | BT-549 > 100 µM | IGROV-1 > 100 µM | RPMI-8226 > 100 µM | SK-OV-3 > 100 µM | LOX IMVI > 100 µM | U-251 > 100 µM | NCI-H226 > 100 µM
